Data taken from patent publication US20080119462A1, “METHOD FOR TREATING VASCULAR HYPERPERMEABLE DISEASE” (Sucampo AG, priority 2003, published 2008).
Where a name gives a salt, the structure may show the parent alone.

What was measured:
diabetic rats = assay: Ocular permeability in STZ diabetic rats (leakage of fluorescein into the vitreous); type: in vivo, rat; conditions: daily from 2 weeks after STZ, mean ± S.E.M., 10 rats
Method: Diabetes in rats was induced with an intraperitoneal (i.p.) injection of 65 mg/ml/kg of streptozotocin (STZ) in 2 mmol/l citrate buffer (pH 4.5) after a 20-h fast. At the same time control rats were injected with an equal volume of 2 mmol/l citrate buffer. Plasma glucose level was checked by a calorimetric method. At day 3 of STZ treatment, the rats were diagnosed with diabetes showing a plasma glucose level of 350 mg/dl.
The treatment of Compound A was given daily from 2 weeks after STZ treatment for 2 weeks. At 24 hrs after final treatment of Compound A, the vascular permeability in oculus was investigated based on the leakage of dye into the vitreous 30 min after intravenous injection of fluorescein solution (40 mg/ml/kg). Permeability was expressed as vitreous/plasma ratio of fluorescein concentration measured by a fluorophotometer. At the same time, the plasma SSAO activity was checked by the radiochemical-enzyme assay using ^14C-benzylamine (2×10^−5 mol/l final concentration) as substrate.
In the same manner as in Example 2, the effect of various VAP-1 inhibitors on ocular permeability was determined in diabetic rats.

CC(=O)Nc1nc(CCc2ccc(C(=N)N)cc2)cs1.Cl
melting point: 229.5 to 231 °C

CC(=O)Nc1nc(CCc2ccc(CC(=N)N)cc2)cs1 (as salt: hydrochloride) [Production Example 59, N-(4-{2-[4-(2-amino-2-iminoethyl)phenyl]ethyl}-1,3-thiazol-2-yl)acetamide]
melting point: 190.5 to 192 °C

CC(=O)Nc1nc(CCc2ccc(CON)cc2)cs1 [Compound B, N-[4-(2-{4-[(aminooxy)methyl]phenyl}ethyl)-1,3-thiazol-2-yl]acetamide]
melting point: 130 to 130.5 °C
Vitreous/Plasma Ratio of Fluorescein Concentration (diabetic rats; 0.1 mg/kg, s.c.): 7.54 ± 0.80 ×10^−3
Vitreous/Plasma Ratio of Fluorescein Concentration (diabetic rats; 0.003%, ocular instillation, u.i.d.): 9.86 ± 1.65 ×10^−3

CC(=O)Nc1nc(CCc2ccc(NC3=NCCS3)cc2)cs1 [Production Example 2, N-(4-(2-(4-(4,5-dihydro-1,3-thiazol-2-ylamino)phenyl)ethyl)-1,3-thiazol-2-yl)acetamide]
melting point: 218 to 219.5 °C

C=NOCc1ccc(CCc2csc(NC(C)=O)n2)cc1 [Production Example 17, N-{4-[2-(4-{[(methyleneamino)oxy]methyl}phenyl)ethyl]-1,3-thiazol-2-yl}acetamide]
melting point: 136.5 to 137 °C

CC(=O)Nc1nc(CCc2ccc(NC(=N)N)cc2)c(Cc2ccc(S(C)(=O)=O)cc2)s1 [Production Example 48, N-{4-[2-(4-{[amino(imino)methyl]amino}phenyl)ethyl]-5-[4-(methylsulfonyl)benzyl]-1,3-thiazol-2-yl}acetamide]
melting point: 228 to 229.5 °C

CC(=O)Nc1nc(CCc2ccc(NC3=NCCN3)cc2)c(Cc2ccc(S(C)(=O)=O)cc2)s1 [Production Example 55, N-{4-{2-[4-(4,5-dihydro-1H-imidazol-2-ylamino)phenyl]ethyl}-5-[4-(methylsulfonyl)benzyl]-1,3-thiazol-2-yl}acetamide]
melting point: 139 to 140 °C

CC(=N)Nc1ccc(CCc2nc(NC(C)=O)sc2Cc2ccc(S(C)(=O)=O)cc2)cc1 [Production Example 56, N-{4-{2-[4-(ethanimidoylamino)phenyl]ethyl}-5-[4-(methylsulfonyl)benzyl]-1,3-thiazol-2-yl}acetamide]
melting point: 81.5 to 83 °C

CC(=O)Nc1nc(CCc2ccc(C(=O)NC(=N)N)cc2)c(Cc2ccc(S(C)(=O)=O)cc2)s1 [Production Example 106, 4-(2-{2-(acetylamino)-5-[4-(methylsulfonyl)benzyl]-1,3-thiazol-4-yl}ethyl)-N-[amino(imino)methyl]benzamide]
melting point: 108 to 109.5 °C
